Measurements published in US8647824B2, “Microbial reductive dehalogenation of vinyl chloride” (The Board of Trustees of the Leland Stanford Junior …, priority 2004, dated 2014).
“And” between values parts separate entries of the source, which are not always exact repeats. Identical values can stand only once. Marks after values point to notes of the source that are not given here.

Tests used:
[1] = tested on: highly enriched culture of strain VS; test: Batch dechlorination and growth, highly enriched culture of strain VS; assay type: cell-based, Dehalococcoides species strain VS; conditions: for Final VC rate / Final cells: after utilization of the substance; for Final VC rate / Mass dechlorinated: duplicate bottles; for Final cells: duplicates, computed from VC rate; for Initial VC rate: before utilization of the substance, average and range of replicates; for Growth yield by competitive PCR: strain VS grown on the substance
Experimental: (§1) The purpose of the second study was to compare dechlorination rates of PCE, TCE and DCE between the three different cultures that grew on VC (Victoria, KB-1/VC and Pinellas). The development of inocula here was performed with VC, just as in the first study. For the growth and substrate utilization experiments, triplicate bottles were set up for each culture containing 1 mL of inoculum and either neat PCE (0.4 μL), neat TCE (0.3 μL), saturated DCE solution (34 μL) or gaseous VC (200 μL). To further investigate TCE removal, bottles (120 mL) were filled with 20 mL of a highly enriched culture of strain VS made from the Victoria culture. Duplicate bottles were supplied with gaseous VC (50 μL on day 0, then 150 μL on day 3) or TCE (0.4 μL neat liquid). Dechlorination was followed until all VC or TCE was converted to ethene (day 12). The change in strain VS concentration during VC and TCE utilization was then determined both by competitive PCR and by an activity procedure evaluated previously for strain VS. In the activity procedure a non-growth limiting concentration of VC (150 μL) along with excess hydrogen is added to a culture and the initial dechlorination rate is measured (over <1 day). A good estimate of strain VS concentration can then be obtained using the previously determined strain VS maximum VC utilization rate (7.8×10^−10 μmol Cl^− (cell·d)^−1). The increase in strain VS concentration during TCE or VC utilization was determined with these two procedures on the culture before and after TCE and VC utilization.
Comparative dechlorination and growth kinetics. With mixed cultures, the concentration of organisms carrying out a particular reaction is generally unknown and difficult to determine. Thus, reaction rates with mixed cultures are generally reported in units that cannot be used for comparative purposes. For example, dechlorination rates have been reported in mass removal rate per microcosm or bottle, per unit liquid volume, per unit of total biomass or per unit of total protein. However, the approach described here allows us to make direct comparisons of basic dechlorination and growth kinetics between cultures. The main parameter used in this comparison is organism maximum growth rate, which is directly related to dechlorination kinetics. The maximum growth rate for each culture was determined from a least-squares model fit to experimental data. For this purpose, the dechlorination of TCE, DCE, and VC was modeled using Monod kinetics with competitive kinetics between the multiple electron acceptors involved in dechlorination (for the case when electron donor is non-rate-limiting):
Modeling approach. The above procedure was utilized to compare VC, DCE and TCE maximum growth rates between the Dehalococcoides like-microorganisms in the three cultures (strain VS, KB-1/VC and Pinellas). Previously determined VC and DCE half-velocity and competitive coefficients were included in this modeling approach (Table 2). Also, a previously determined decay coefficient (0.05 d^−1) for cells growing under optimal conditions (non-limiting electron acceptor and donor) was included. This leaves the maximum growth rates on individual chlorinated ethenes (μV, μD, or μT) as the only fitting parameters, which were determined, together with the 95% confidence interval) using non-linear least-squares fit to the experimental data.
DNA isolation and competitive PCR. For the Victoria, Pinellas, and KB-1/VC genomic DNA was extracted (1 mL) from the inoculum used in the VC growth comparison study and also from cultures in the comparative substrate utilization study following complete TCE dechlorination. DNA was extracted using a DNeasy® tissue system (Qiagen Inc, Valencia, Calif.), following the manufacture's instructions (final volume 200 μL). DNA was extracted from the D. ethenogenes strain 195 culture following dechlorination of DCE. […]

[2] = tested on: Victoria mixed culture, containing strain VS; test: Batch dechlorination and growth kinetics, Victoria mixed culture; assay type: cell-based, Dehalococcoides species strain VS; conditions: for Maximum Growth Rate: VS Mixed (Victoria) culture, 95% confidence interval, least-squares model fit
Text: (§2) Stock cultures. The Victoria mixed culture, containing strain VS, was maintained in a closed continuously stirred tank reactor (CSTR) as previously described. A VC enrichment of this culture, maintained over 5 years, was also used in these investigations. Liquid cultures of the three other cultures evaluated (Pinellas, KB-1/VC, and Dehalococcoides ethenogenes strain 195) were kept in anaerobic bottles, stored in an anaerobic chamber (10% H2, 10% CO2, 80% N2). The bottles were amended with TCE (1-3 μL neat liquid), VC (250 μL gas), and PCE (1-3 μL neat liquid) being added to each, respectively, approximately every two weeks.
(§3) Batch studies. For the experimental portion of this research, two studies were undertaken, one a comparative VC growth study, and the other a comparative growth and substrate utilization study with different chlorinated ethenes. These studies compared the dechlorination abilities of Dehalococcoides ethenogenes strain 195 and the Dehalococcoides-like microorganisms in the three mixed cultures (Victoria, KB-1/VC, and Pinellas).
(§4) For the first study, a VC enriched inoculum was first developed for each of the three mixed cultures. Here, bottles (120 mL) were filled with 60 mL of anaerobic media in an anaerobic chamber as previously described, and inoculated with 200 μL of each stock culture. Gaseous VC (99.5%) was added with a gas tight syringe (200 μL). The cultures were then moved to a shaker (60-80 rpm) in an anaerobic chamber (20±2° C.). Immediately after 5 μmol of ethene was formed in a bottle, 200 μL of the culture was transferred to fresh media (60 mL), in triplicate, and VC was again added (200 μL). The inoculum for the growth study was that formed after exactly 4 μmol of ethene was produced following this second transfer. To compare growth rates on VC, a range in concentration of each inocula (0.1, 0.3, 1, 3, 9 mL) was transferred to fresh media (as above) to result in a liquid volume of 60 mL, and gaseous VC (200 μL) was added to each. […] Hydrogen served as the electron donor and was non-limiting (>3%) in all studies. Headspace samples were periodically removed by syringe (250 μL) for chlorinated ethene analyses.
as §1
(§5) Comparative dechlorination and growth kinetics. With mixed cultures, the concentration of organisms carrying out a particular reaction is generally unknown and difficult to determine. […]

Pinellas culture = test: Batch dechlorination and growth kinetics, Pinellas culture; assay type: cell-based, Dehalococcoides-like microorganisms; conditions: for Maximum Growth Rate: 95% confidence interval
Text: as §2, §3, §4, §1, §5

[3] = tested on: Victoria mixed culture, containing strain VS; conditions: traditional method of cell counting; cited from earlier work

Structure (SMILES)	Half velocity coefficient KT ([1]; Highly enriched culture) [µM]	Maximum Growth Rate ([1]; Highly enriched strain VS culture, 95% confidence interval)	Final VC rate [1]	Final cells [1]	Initial VC rate [1]	Mass dechlorinated [1]	Growth yield by competitive PCR [1]	Maximum Growth Rate [2]	Half velocity coefficient KT ([2]; VS Mixed culture) [µM]	Half velocity coefficient KT (Pinellas culture) [µM]	Maximum Growth Rate (Pinellas culture)	growth rate determined previously by cell counting [3] [day⁻¹]	time to form 5 μmol of ethene ([2]; Victoria culture, 200 μL VC) [days]	time to form 5 μmol of ethene (Pinellas culture; 200 μL VC) [days]
ClC=C(Cl)Cl [TCE, trichloroethene]	12.4 ± 0.6	0.35 day⁻¹ and 0.35 ± 0.13 day⁻¹	312 µmol·days/L and 204 µmol·days/L	4.0 × 10^11 cell L^−1 and 2.6 × 10^11 cell L^−1	28 ± 2^a nmol (d · L)^−1	10.94 µmol and 8.97 µmol	4.7±0.3×10^8 cell/μmol Cl^−	0.35 ± 0.07 day⁻¹	9.0 ± 0.4	10.5 ± 0.7	0.49 day⁻¹ and 0.49 ± 0.03 day⁻¹			
C=CCl [VC, vinyl chloride]			228 µmol·days/L and 204 µmol·days/L	2.9 × 10^11 cell L^−1 and 2.6 × 10^11 cell L^−1	28 ± 2^a nmol (d · L)^−1	10.39 µmol and 10.52 µmol	5.2±0.4×10^8 cell/μmol Cl^−	0.49 day⁻¹ and 0.49 ± 0.02 day⁻¹			0.28 day⁻¹ and 0.28 ± 0.01 day⁻¹	0.4	18	21
